The structures appear in SMILES notation. A value given as a limit tells only on which side of the number the result lay.

The assay relates to Endogenous Huntingtin Protein. Kind of assay: Endogenous Huntingtin Protein Assay (MSD plates, MW1 or MAB2166 capture antibody). Type of assay: cell-based. The following applies: Table 1. Put shortly: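 Sandwich MSD immunoassay: plates were coated overnight at 4° C with MW1 (expanded polyQ) or MAB2166 capture antibody at 1 μg/mL, then blocked with 5% BSA. Samples were bound overnight at 4° C, followed by rabbit mAb #5656S and SULFO-TAG anti-rabbit detection, each at 0.25 μg/mL for 1 h at room temperature. Signal was read by electrochemiluminescence.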
The term IC50 denotes the concentration that inhibits the measured activity by half. A lower IC50 goes with greater potency. `CN(c1nc2sc(-n3ccc(-c4cn[nH]c4)cc3=O)nc2s1)[C@H]1C[C@]2(C)CC[C@](C)(C1)N2` [Compound 146, 1-(5-{[(1R,3s,5S)-1,5-dimethyl-8-azabicyclo[3.2.1]octan-3-yl](methyl)amino}[1,3]thiazolo[5,4-d][1,3]thiazol-2-yl)-4-(1H-pyrazol-4-yl)pyridin-2(1H)-one] had an IC50 not above 100 nM.

`CC(C)(C)NC1CCN(c2nc3sc(-c4ccc(-c5cn[nH]c5)cc4O)nc3s2)C1` (centres unmarked) [Compound 147, 2-{5-[3-(tert-butylamino)pyrrolidin-1-yl][1,3]thiazolo[5,4-d][1,3]thiazol-2-yl}-5-(1H-pyrazol-4-yl)phenol] displayed an IC50 of 1000 to 3000 nM.

`CN(c1nc2sc(-n3ccc(-n4cc(F)cn4)cc3=O)nc2s1)[C@H]1C[C@]2(C)CC[C@](C)(C1)N2` [Compound 148, 1-(5-{[(1R,3s,5S)-1,5-dimethyl-8-azabicyclo[3.2.1]octan-3-yl](methyl)amino}[1,3]thiazolo[5,4-d][1,3]thiazol-2-yl)-4-(4-fluoro-1H-pyrazol-1-yl)pyridin-2(1H)-one] returned an IC50 not above 100 nM.

`CN(c1nc2sc(-n3ccc(-n4cc(F)cn4)cc3=O)nc2s1)[C@@H]1C[C@H]2CC[C@@H](C1)N2` [Compound 149, 1-(5-{[(1R,3s,5S)-8-azabicyclo[3.2.1]octan-3-yl](methyl)amino}[1,3]thiazolo[5,4-d][1,3]thiazol-2-yl)-4-(4-fluoro-1H-pyrazol-1-yl)pyridin-2(1H)-one] displayed an IC50 not above 100 nM.

Turning to `CC(C)(C)NC1CCN(c2nc3sc(-c4ncc(-c5cn[nH]c5)cn4)nc3s2)C1` (centres unmarked) [Compound 150, N-tert-butyl-1-{5-[5-(1H-pyrazol-4-yl)pyrimidin-2-yl][1,3]thiazolo[5,4-d][1,3]thiazol-2-yl}pyrrolidin-3-amine], the IC50 lay in the range of 1000 to 3000 nM.

On to `CC(C)(C)NC1CCN(c2nc3sc(-n4ccc(-c5cn[nH]c5)cc4=O)nc3s2)C1` (centres unmarked) [Compound 151, 1-{5-[3-(tert-butylamino)pyrrolidin-1-yl][1,3]thiazolo[5,4-d][1,3]thiazol-2-yl}-4-(1H-pyrazol-4-yl)pyridin-2(1H)-one], for which the IC50 lay within 100 to 500 nM.

The molecule `CC1CC(N(C)c2nc3sc(-c4ncc(-c5cn[nH]c5)c5cc[nH]c45)nc3s2)CCN1C` (centres unmarked) [Compound 152, N-(1,2-dimethylpiperidin-4-yl)-N-methyl-5-[4-(1H-pyrazol-4-yl)-1H-pyrrolo[2,3-c]pyridin-7-yl][1,3]thiazolo[5,4-d][1,3]thiazol-2-amine] registered an IC50 not above 100 nM.

Turning to `CN(c1nc2sc(-n3cnc(-c4cn[nH]c4)cc3=O)nc2s1)[C@@H]1C[C@H]2CC[C@@H](C1)N2C` [Compound 153, 3-(5-{methyl[(1R,3s,5S)-8-methyl-8-azabicyclo[3.2.1]octan-3-yl]amino}[1,3]thiazolo[5,4-d][1,3]thiazol-2-yl)-6-(1H-pyrazol-4-yl)pyrimidin-4(3H)-one], the 50% inhibitory concentration (IC50) was not above 100 nM.

`CN(c1nc2sc(-c3ncc(-c4cn[nH]c4)c4cc[nH]c34)nc2s1)[C@H]1C[C@]2(C)CC[C@](C)(C1)N2` [Compound 154, N-[(1R,3s,5S)-1,5-dimethyl-8-azabicyclo[3.2.1]octan-3-yl]-N-methyl-5-[4-(1H-pyrazol-4-yl)-1H-pyrrolo[2,3-c]pyridin-7-yl][1,3]thiazolo[5,4-d][1,3]thiazol-2-amine] displayed an IC50 not above 100 nM.

`CN(c1nc2sc(-n3ccc(-c4cn[nH]c4)cc3=O)nc2s1)[C@@H]1CCCNC1` [Compound 155, 1-(5-{methyl[(3R)-piperidin-3-yl]amino}[1,3]thiazolo[5,4-d][1,3]thiazol-2-yl)-4-(1H-pyrazol-4-yl)pyridin-2(1H)-one] showed an IC50 of 100 to 500 nM.

For the molecule `CC1(C)CC(Oc2nc3sc(-n4ccc(-c5cn[nH]c5)cc4=O)nc3s2)CC(C)(C)N1` [Compound 156, 4-(1H-pyrazol-4-yl)-1-{5-[(2,2,6,6-tetramethylpiperidin-4-yl)oxy][1,3]thiazolo[5,4-d][1,3]thiazol-2-yl}pyridin-2(1H)-one], the IC50 was not above 100 nM.

In the case of `CC1CC(N(C)c2nc3sc(-n4ccc5ccc(O)nc54)nc3s2)CCN1C` (centres unmarked) [Compound 157, 1-{5-[(1,2-dimethylpiperidin-4-yl)(methyl)amino][1,3]thiazolo[5,4-d][1,3]thiazol-2-yl]-1H-pyrrolo[2,3-b]pyridin-6-ol], the IC50 was in the range of 100 to 500 nM.

`CN(c1nc2sc(-c3cc(F)c(-c4cn[nH]c4)cc3F)nc2s1)[C@@H]1C[C@H]2CC[C@@H](C1)N2` [Compound 158, N-[(1R,3s,5S)-8-azabicyclo[3.2.1]octan-3-yl]-5-[2,5-difluoro-4-(1H-pyrazol-4-yl)phenyl]-N-methyl[1,3]thiazolo[5,4-d][1,3]thiazol-2-amine] came in with an IC50 not above 100 nM.

As for `CN(c1nc2sc(-c3ncc(-c4cn[nH]c4)c4cc[nH]c34)nc2s1)C1CC(C)(C)NC(C)(C)C1` [Compound 159, N-methyl-5-[4-(1H-pyrazol-4-yl)-1H-pyrrolo[2,3-c]pyridin-7-yl]-N-(2,2,6,6-tetramethylpiperidin-4-yl)[1,3]thiazolo[5,4-d][1,3]thiazol-2-amine], the IC50 is not above 100 nM.

The molecule `CN(c1nc2sc(-c3nccc4cc[nH]c34)nc2s1)[C@@H]1C[C@H]2CC[C@@H](C1)N2` [Compound 160, N-[(1R,3s,5S)-8-azabicyclo[3.2.1]octan-3-yl]-N-methyl-5-(1H-pyrrolo[2,3-c]pyridin-7-yl)[1,3]thiazolo[5,4-d][1,3]thiazol-2-amine] yielded an IC50 of 100 to 500 nM.

As for `CN(c1nc2sc(-c3ncc(-c4cn[nH]c4)cn3)nc2s1)[C@H]1CCCNC1` [Compound 161, N-methyl-N-[(3S)-piperidin-3-yl]-5-[5-(1H-pyrazol-4-yl)pyrimidin-2-yl][1,3]thiazolo[5,4-d][1,3]thiazol-2-amine], the IC50 lay within 100 to 500 nM.

The molecule `CN(c1nc2sc(-c3ncc(-c4cn[nH]c4)cn3)nc2s1)C1CC(C)(C)NC(C)(C)C1` [Compound 162, N-methyl-5-[5-(1H-pyrazol-4-yl)pyrimidin-2-yl]-N-(2,2,6,6-tetramethylpiperidin-4-yl)[1,3]thiazolo[5,4-d][1,3]thiazol-2-amine] displayed an IC50 not above 100 nM.

`CN(c1nc2sc(-c3cnc(-c4cn[nH]c4)cn3)nc2s1)C1CC(C)(C)NC(C)(C)C1` [Compound 163, N-methyl-5-[5-(1H-pyrazol-4-yl)pyrazin-2-yl]-N-(2,2,6,6-tetramethylpiperidin-4-yl)[1,3]thiazolo[5,4-d][1,3]thiazol-2-amine] returned an IC50 not above 100 nM.

As for `CN(c1nc2sc(-c3cnc(-c4cn[nH]c4)cn3)nc2s1)[C@@H]1C[C@H]2CC[C@@H](C1)N2` [Compound 164, N-[(1R,3s,5S)-8-azabicyclo[3.2.1]octan-3-yl]-N-methyl-5-[5-(1H-pyrazol-4-yl)pyrazin-2-yl][1,3]thiazolo[5,4-d][1,3]thiazol-2-amine], the IC50 is not above 100 nM.

Molecule `CCCN1[C@@H]2CC[C@H]1C[C@H](N(C)c1nc3sc(-n4ccc(-c5cn[nH]c5)cc4=O)nc3s1)C2` [Compound 165, 1-(5-{methyl[(1R,3s,5S)-8-propyl-8-azabicyclo[3.2.1]octan-3-yl]amino}[1,3]thiazolo[5,4-d][1,3]thiazol-2-yl)-4-(1H-pyrazol-4-yl)pyridin-2(1H)-one] gave an IC50 not above 100 nM.
